According to US5068325A, “4,5,7,8-tetrahydro-6H-thiazolo[5,4-d]azepines, their preparation and their use as pharmaceutical compositions” (priority 1988, dated 1991):
pIC50, pKi: −log10 of the molar value. Like-named read-outs stand apart in the source and are kept apart here.

Key:
dopamine D1-receptors = target: T1, dopamine D1-receptors (Rattus norvegicus, UniProt P18901); test: affinity for dopamine D1-receptors by displacement experiments with [3H]-Sch 23390; format: binding
T1 construct: The striata were dissected out, weighed and homogenised in 25 volumes of tris buffer; from tissue; host or cells: rat striatum membranes (Chbb:Thom strain), prepared as for the D2 assay
Description: (§1) Male rats (of the Chbb:Thom strain weighing about 200 g) were killed by a blow to the back of the neck. The brains were removed and dissected on ice. The striata were dissected out, weighed and homogenised in 25 volumes of tris buffer (50 mM tris-HCl, 1 mM EDTA, 5 mM MgCl2 and 1 mM ascorbic acid) for 30 seconds in an Ultra-Turrax at maximum speed, followed by 10 cycles in a Potter-Elvehjem at 1400 rpm. The pellet obtained after centrifuging at 50,000×g at 4° C. for 15 minutes was again taken up in 25 ml of tris buffer and centrifuged under the above conditions. The supernatant was discarded and the pellet obtained was incubated in 25 ml of tris buffer at 37° C. for 30 minutes and then centrifuged again at 50,000×g at 4° C. for 15 minutes. Finally, the pellet obtained was mixed with tris buffer to obtain a homogenate dilution of 1:500 (based on the weight of the striata).
(§2) Displacement curves were obtained from the data using the TOPFIT programming package (G. Heinzel in "Pharmacokinetics During Drug Development: Data Analysis and Evaluation Techniques", G. Bozler and J. M. van Rossum Eds., G. Fischer Verlag, Stuttgart 1982, 207).
7. Determining the affinity for dopamine D1-receptors by displacement experiments with [^3 H1-Sch 23390
The membrane preparation and data analysis were carried out as described for determining the affinity for dopamine D2 - receptors.
1 ml aliquots of the membrane preparation were incubated for 1 hour at ambient temperature with 1 ml of a solution of 0.25 nM [^3 H]-Sch 23390 (2.44 TBq/mmol, Messrs. DuPont NEN) and with increasing concentrations of the test substance (10^-11 to 10^-4 M). Incubation was ended by the addition of 5 ml of ice cold tris buffer and filtration through Whatman GF/B filters. The filters were washed twice, each time with 5 ml of ice cold buffer. The radioactivity of the filters was determined by liquid scintillation measurement in Instagel(R) (Messrs. Canberra Packard).
The non-specific binding was determined in the presence of 10^-6 M (-)-butaclamol (Research Biochemicals Inc.).

dopamine D2-receptors = dopamine D2-receptors (Rattus norvegicus, UniProt P61169); test: affinity for dopamine D2-receptors by displacement experiments with [3H]-spiperone (rat striatum membranes); format: binding; conditions: for pKi: [3H]-spiperone, high-affinity form of the dopamine receptor; for α2-IC50 / D2-Ki: relative affinity for dopamine-D2 receptors compared with α2-adrenoceptors, the higher, the higher the D2/α2 selectivity
Description: 1Determining the affinity for dopamine D2-receptors by displacement experiments with [^3 H]-spiperone (Modified Method of W. Billard et al., Life Sci. 35, 1885 (1984) and D. J. de Vries and P. M. Beart, Eur. J. Pharmacol. 109, 417 (1985))
as §1
1 ml aliquots of the membrane preparation were incubated with 1 ml of a solution of 0.25 nM [^3 H]-spiperone ([…], Messrs. DuPont NEN) and at increasing concentrations of the test substance (10^-11 to 10^-4 M) at ambient temperature for one hour. Incubation was ended by the addition of 5 ml of ice cold tris buffer and filtration using Whatman GF/B filters. The filters were washed twice, each time with 5 ml of ice cold buffer. The radioactivity of the filters was determined by liquid scintillation measurement in Instagel^(R) (Messrs. Canberra Packard). Non-specific binding was determined in the presence of 10^-5 M haloperidol (Sigma Chemical Co.).
as §2

alpha-2 receptors = target: T2, alpha-2 receptors (Rattus norvegicus, UniProt P22909); test: affinity for alpha-2 receptors by displacement experiments with [3H]-clonidine (rat cortex membranes); format: binding; conditions: read-out: α2-IC50
T2 sequence (P22909 1-465): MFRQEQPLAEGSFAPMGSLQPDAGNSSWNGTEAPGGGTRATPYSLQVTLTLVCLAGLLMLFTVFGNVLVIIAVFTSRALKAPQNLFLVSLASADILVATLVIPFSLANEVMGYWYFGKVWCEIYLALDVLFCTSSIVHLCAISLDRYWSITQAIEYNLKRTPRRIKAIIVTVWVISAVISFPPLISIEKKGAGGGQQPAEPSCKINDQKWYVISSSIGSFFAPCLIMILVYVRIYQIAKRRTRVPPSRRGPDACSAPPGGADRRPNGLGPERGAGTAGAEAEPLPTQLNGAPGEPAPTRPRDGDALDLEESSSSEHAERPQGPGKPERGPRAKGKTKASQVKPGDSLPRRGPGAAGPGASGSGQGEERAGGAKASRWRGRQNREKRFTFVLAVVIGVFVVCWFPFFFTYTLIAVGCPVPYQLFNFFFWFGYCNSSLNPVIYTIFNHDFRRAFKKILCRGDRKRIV

[1] = target: T3, serotonin-1A(5-HT1A) receptors (Rattus norvegicus, UniProt P19327); test: affinity for serotonin-1A (5-HT1A) receptors by displacement experiments with [3H]-8-OH-DPAT (rat frontal cortex); format: binding
T3 construct: The frontal cortex was dissected out; from tissue; host or cells: rat frontal cortex homogenate (Chbb:Thom strain)
T3 sequence (P19327 1-422): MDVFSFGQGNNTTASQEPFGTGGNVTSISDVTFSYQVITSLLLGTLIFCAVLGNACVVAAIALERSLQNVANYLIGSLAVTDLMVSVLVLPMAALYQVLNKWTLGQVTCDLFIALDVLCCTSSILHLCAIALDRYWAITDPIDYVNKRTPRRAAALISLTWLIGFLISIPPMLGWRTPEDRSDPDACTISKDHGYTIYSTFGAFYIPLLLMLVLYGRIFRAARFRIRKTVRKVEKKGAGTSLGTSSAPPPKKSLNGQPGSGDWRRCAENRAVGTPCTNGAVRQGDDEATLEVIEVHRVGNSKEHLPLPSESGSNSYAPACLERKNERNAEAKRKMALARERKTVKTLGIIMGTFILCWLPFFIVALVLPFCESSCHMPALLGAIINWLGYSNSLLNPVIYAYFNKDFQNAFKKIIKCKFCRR
Description: 3. […] (Method of S. J. Peroutka, J. Neurochem. 47, 529 (1986), modified according to H. Gozlan et al., J. Receptor Research 7. 195 (1987))
A male rat (Chbb:Thom strain weighing about 200 g) was decapitated. The brain was removed and placed in ice-cold buffer (50 mmol/1 tris-HCl plus hydrochloric acid ad pH =7.4 at ambient temperature). The frontal cortex was dissected out; its moist weight was determined. It was homogenised in 40 times its volume of buffer (Polytron, position 6, 10 seconds), then centrifuged for 20 minutes at 45,000×g in the refrigerated centrifuge. The pellet was washed in 100 times its volume of buffer and centrifuged again as described above. The resulting pellet was resuspended in 40 times its volume of buffer and pre-incubated for 10 minutes at 37° C. Sixty times the volume of buffer were added and centrifuging was carried out as above. The resulting pellet was washed with 100 times the volume of buffer and centrifuged as above. The pellet was resuspended in buffer (0.8 ml/10 mg) and briefly homogenised in the Polytron. This homogenised tissue was cooled in ice until ready for incubation.
Incubation was stopped by rapid filtering through Whatman GF/B filters; rinsing was carried out twice, each time with 5 ml of ice cold buffer (Filter Prep, Messrs. Ismatec). The radioactivity of the filters was determined by liquid scintillation measurement.
(§3) Specific binding is obtained from total binding minus non-specific binding.

[2] = target: T4, serotonin-2(5-HT2)-receptors (Rattus norvegicus, UniProt P14842); test: affinity for serotonin-2 (5-HT2) receptors by displacement experiments with [3H]-spiperone (rat frontal cortex); format: binding
T4 construct: The frontal cortex was dissected out and placed in ice cold 0.32 M saccharose solution; from tissue; host or cells: rat frontal cortex homogenate (Chbb:Thom strain)
Description: as §3
A male rat (Chbb:Thom strain, about 200 g) was decapitated. The brain was removed. The frontal cortex was dissected out and placed in ice cold 0.32 M saccharose solution; its moist weight was determined. It was homogenised in 10 times the volume (0.32 M) of saccharose solution for 1 minute at 800 rpm in a Potter S (made by Braun of Melsungen). The homogenised material was centrifuged for 10 minutes at 1000×g (=3,000 rpm with a rotor 8×38 ml) in a refrigerated centrifuge. The supernatant was decanted off and homogenised (Polytron, position 5, 1 minute); the sediment was discarded. 5 ml (=0.5 g moist weight) of the tissue suspension thus obtained were made up to 40 ml with buffer (50 mm tris-HCl; pH=7.7 at ambient temperature).
0.8 ml of the buffered homogenised tissue (=10 mg moist weight) were incubated with 0.1 ml of a solution of [^3 H]-spiperone (about 0.2 nmol/1 final concentration) and with 0.1 ml of a solution of the test substance (increasing concentration) for 15 minutes at 37° C. (triple measurement). Incubation was stopped by rapid filtering through a Whatman GF/B filter; rinsing was carried out 3 times, each time with 5 ml of ice cold buffer within a maximum of 10 seconds (Filter Prep Messrs. Ismatec). The radioactivity of the filters was determined by liquid scintillation measurement.
The specific binding is obtained from the total binding minus the non-specific binding. The averages of the triple measurements are entered in a system of coordinates as in 1.3. The IC50 value is the concentration which inhibits the specific binding of [^3 H]-spiperone by 50%.

[3] = system: hypersensitive dopamine receptor; test: motility triggering in the mouse treated 24 hours earlier with reserpine; format: in vivo; conditions: Mus musculus, sc; reserpine-treated mice, s.c.; read-out: DLi50 (dosage resulting in 50 running pulses every 5 minutes)
Description: This test determines predominantly agonistic effects on the hypersensitive dopamine receptor.
Male mice are treated 24 hours before the experiment with 5 mg/kg i.p. reserpine. The animals are kept at 25°-30° C. and treated three times with 2 ml of a 5% glucose solution in tyrode s.c. (the first time when the reserpine is given, the second time in the evening of the pre-treatment day and the third time on the morning of the test day).
[…] (The injection volume is usually 0.1 ml/10 g of body weight). 30 minutes later the groups of animals are placed in the observation cages (measuring 42 x 24 x 8 cm) and fitted with an infrared lightbeam in order to measure their activity. The value measured is the frequency with which a group of 6 mice pass through the infra-red beam within 5 minutes ("running pulses/5 minutes"; mean at n=3; mean±s.e.m. at n=6).
3 to 6 groups are tested for each substance.

[4] = [3H]-8-OH-DPAT, rat frontal cortex, read-out: 5-HT1A-Ki

T1 sequence (P18901 whole entry): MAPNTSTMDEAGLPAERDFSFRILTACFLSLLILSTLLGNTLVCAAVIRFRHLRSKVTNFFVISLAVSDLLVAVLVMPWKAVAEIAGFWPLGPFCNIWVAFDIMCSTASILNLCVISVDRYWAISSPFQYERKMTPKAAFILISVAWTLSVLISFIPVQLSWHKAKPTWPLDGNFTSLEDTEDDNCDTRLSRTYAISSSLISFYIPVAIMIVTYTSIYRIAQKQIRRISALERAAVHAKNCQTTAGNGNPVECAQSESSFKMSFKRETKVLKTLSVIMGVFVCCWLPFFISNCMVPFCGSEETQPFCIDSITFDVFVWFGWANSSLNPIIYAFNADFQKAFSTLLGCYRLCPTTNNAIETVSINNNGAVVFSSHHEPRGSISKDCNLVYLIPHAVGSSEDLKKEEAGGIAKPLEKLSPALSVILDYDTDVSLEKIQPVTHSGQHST
T4 sequence (P14842 whole entry): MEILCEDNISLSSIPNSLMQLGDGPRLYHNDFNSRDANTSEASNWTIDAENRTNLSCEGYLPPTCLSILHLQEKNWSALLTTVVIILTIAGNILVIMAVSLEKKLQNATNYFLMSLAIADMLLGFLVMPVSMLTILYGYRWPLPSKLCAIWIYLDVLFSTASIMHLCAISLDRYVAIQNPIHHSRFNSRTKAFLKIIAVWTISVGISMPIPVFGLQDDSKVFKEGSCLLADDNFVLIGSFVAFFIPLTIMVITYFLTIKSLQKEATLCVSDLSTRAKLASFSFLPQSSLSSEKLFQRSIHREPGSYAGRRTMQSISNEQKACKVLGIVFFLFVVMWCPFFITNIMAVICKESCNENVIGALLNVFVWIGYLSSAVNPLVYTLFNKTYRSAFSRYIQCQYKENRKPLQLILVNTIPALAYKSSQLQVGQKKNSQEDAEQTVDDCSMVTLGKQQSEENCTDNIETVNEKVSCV
Sequence of dopamine D2-receptors (P61169 whole entry): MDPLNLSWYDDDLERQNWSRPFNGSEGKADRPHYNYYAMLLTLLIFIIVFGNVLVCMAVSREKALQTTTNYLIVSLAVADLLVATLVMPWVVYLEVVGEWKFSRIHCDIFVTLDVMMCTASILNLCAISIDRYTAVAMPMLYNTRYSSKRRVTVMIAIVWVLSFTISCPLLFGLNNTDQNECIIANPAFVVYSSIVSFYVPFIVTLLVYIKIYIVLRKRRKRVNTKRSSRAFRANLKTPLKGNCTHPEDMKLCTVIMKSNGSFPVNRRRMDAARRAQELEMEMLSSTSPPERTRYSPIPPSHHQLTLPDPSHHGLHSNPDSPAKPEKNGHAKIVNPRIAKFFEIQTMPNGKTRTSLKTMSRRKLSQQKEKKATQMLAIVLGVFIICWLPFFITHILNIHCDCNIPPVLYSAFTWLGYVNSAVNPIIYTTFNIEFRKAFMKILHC

pKi (dopamine D2-receptors)	α2-IC50 / D2-Ki (dopamine D2-receptors)	pIC50 (alpha-2 receptors)	pKi [1, 4]	pKi [2]	SMILES	also measured
6.39	12.4	5.29			Nc1nc2c(s1)CCN(CCc1ccccc1)CC2 [Compound C, 2amino-6-(2phenylethyl)-4,5,7,8-tetrahydro-6H-thiazolo[5,4d]azepine, reference compound]	pKi (dopamine D1-receptors): 4.96
			5.36	6.45	Nc1nc2c(s1)CCN(CC=Cc1ccccc1)CC2 [Example 1, 2-Amino-6-cinnamyl-4,5,7,8-tetrahydro-6H-thiazolo-[5,4-d]azepine]	
					Nc1nc2c(s1)CCN(CC1=Cc3ccccc3CC1)CC2 [Example 1b, 2-Amino-6-(1,2-dihydronaphthalen-3-yl-methyl)-4,5,7,8-tetrahydro-6H-thiazolo[5,4-d]azepine]	pKi (dopamine D1-receptors): 6.10
					Nc1nc2c(s1)CCN(CC=Cc1ccsc1)CC2 [Example 4a, 2-Amino-6-(3-(3-thienyl)allyl)-4,5,7,8-tetrahydro-6H-thiazolo[5,4-d]azepin]	ED (50 running pulses/5 min) [3]: 1.85 mg/kg
8.00	89	6.05	4.85	5.74	Nc1nc2c(s1)CCN(CC#Cc1ccccc1)CC2 [Example 4d, 2-Amino-6-(3-phenyl-2-propyn-1-yl)-4,5,7,8-tetrahydro-6H-thiazolo[5,4-d]azepine]	
8.16	318	5.66	4.85	6.46	Nc1nc2c(s1)CCN(CC=Cc1ccc3ccccc3c1)CC2 [Example 4u, 2-Amino-6-(3-(2-naphthyl)allyl)-4,5,7,8-tetrahydro-6H-thiazolo[5,4-d]azepine]	
8.52	733	5.66	4.44	5.99	Nc1nc2c(s1)CCN(CC=Cc1ccc(-c3ccccc3)cc1)CC2 [Example 4w, 2-Amino-6-(3-(4-biphenyl)allyl)-4,5,7,8-tetrahydro-6H-thiazolo[5,4-d]azepine]	
					Nc1nc2c(s1)CCN(CC=Cc1ccccc1OCc1ccccc1)CC2 [Example 4x, 2-Amino-6-(3-(2-benzyloxy-phenyl)allyl)-4,5,7,8-tetrahydro-6H-thiazolo[5,4-d]azepine]	pKi (dopamine D1-receptors): 6.40
					Nc1nc2c(s1)CCN(CC=Cc1ccco1)CC2 [Example 8, 2-Amino-6-(3-(2-furyl)allyl)-4,5,7,8-tetrahydro-6H-thiazolo[5,4-d]azepine]	ED (50 running pulses/5 min) [3]: 0.34 mg/kg
					Nc1nc2c(s1)CCN(CCC=Cc1ccccc1)CC2 [Example 8k, 2-Amino-6-(4-phenyl-3-buten-1-yl)-4,5,7,8-tetrahydro-6H-thiazolo[5,4-d]azepine]	pKi (dopamine D1-receptors): 6.29
8.36	450	5.70	4.28	6.07	Nc1nc2c(s1)CCN(C/C=C\c1ccccc1)CC2 [Example 12b, (Z)-2-Amino-6-(3-phenyl™2-propen-I-yl)-4,5,7,8-tetrahydro-6H-thiazolo[5,4-d]azepine]	
			5.97	6.47	Nc1nc2c(s1)CCN(CC1CC1c1ccccc1)CC2 (centres unmarked) [Example 17, 2-Amino-6-(2-phenyl-1-cyclopropyl-methyl)-4,5,7,8-tetrahydro-6H-thiazolo[5,4-d]azepine]	
					O=C(c1ccc(F)cc1)C1CCN(CCn2c(=O)[nH]c3ccccc3c2=O)CC1 [Ketanserine, reference compound]	pKi [1]: 5.55

SMILES	pKi (dopamine D2-receptors)	α2-IC50 / D2-Ki (dopamine D2-receptors)	pIC50 (alpha-2 receptors)	pKi [1, 4]	pKi [2]	also measured
CCCN(CCC)C1CCc2cccc(O)c2C1 (centres unmarked) [Example 8-OH-DPAT, 8-OH-DPAT, reference compound]					5.54	
